Laboratory results from PubChem BioAssay (NCI).
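Dose response: 5 concentrations. Exposure: 48 h. Format: 96-well plates. Endpoint: linear interpolation; highest concentration if not reached. TGI marks complete inhibition of growth.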

Key:
Experiment in all cases: NCI tumour cell line growth inhibition, 48 h
SN12C renal = system: SN12C renal
CCRF-CEM leukemia = system: CCRF-CEM leukemia
HCT-116 colon = system: HCT-116 colon
BT-549 breast = system: BT-549 breast
SNB-75 CNS = system: SNB-75 CNS
CAKI-1 renal = system: CAKI-1 renal
SF-295 CNS = system: SF-295 CNS
NCI-H460 lung = system: NCI-H460 lung
DU-145 prostate = system: DU-145 prostate
OVCAR-4 ovarian = system: OVCAR-4 ovarian
EKVX NSCLC = system: EKVX NSCLC
UACC-257 melanoma = system: UACC-257 melanoma
T-47D breast = system: T-47D breast
OVCAR-3 ovarian = system: OVCAR-3 ovarian
SF-539 CNS = system: SF-539 CNS
UO-31 renal = system: UO-31 renal
IGROV1 ovarian = system: IGROV1 ovarian
SK-MEL-28 melanoma = system: SK-MEL-28 melanoma
SK-OV-3 ovarian = system: SK-OV-3 ovarian
MALME-3M melanoma = system: MALME-3M melanoma

SMILES	TGI (SN12C renal) [µM]	TGI (CCRF-CEM leukemia) [µM]	TGI (HCT-116 colon) [µM]	TGI (BT-549 breast) [µM]	TGI (SNB-75 CNS) [µM]	TGI (CAKI-1 renal) [µM]	TGI (SF-295 CNS) [µM]	TGI (NCI-H460 lung) [µM]	TGI (DU-145 prostate) [µM]	TGI (OVCAR-4 ovarian) [µM]	TGI (EKVX NSCLC) [µM]	TGI (UACC-257 melanoma) [µM]	TGI (T-47D breast) [µM]	TGI (OVCAR-3 ovarian) [µM]	TGI (SF-539 CNS) [µM]	TGI (UO-31 renal) [µM]	TGI (IGROV1 ovarian) [µM]	TGI (SK-MEL-28 melanoma) [µM]	TGI (SK-OV-3 ovarian) [µM]	TGI (MALME-3M melanoma) [µM]
CC1(C)C2CCC1(C)C(OC(=O)/C=C/C(=O)OC1CC3CCC1(C)C3(C)C)C2 (configuration not stated)	> 100	31.1	> 100	> 100	86.6	> 100	> 100	> 100	> 100	> 100	> 100	> 100	> 100	> 100	> 100	> 100	> 100	40.2		
C/C=C(/C)C(=O)O[C@H]1[C@H]2[C@@H]([C@@H](OC(C)=O)[C@H](C)C(=O)[C@@]34C[C@@H](C)C(=O)[C@]3(/C=C(\C)[C@H]1OC(C)=O)O4)C2(C)C	5.33	3.35	5.99	5.84	> 20	10	> 20	> 20	> 20	14.2	17.1	10.9	5.74	7.01	5.83	16	9.96		> 20	
CCCC1CC(=O)NC(=O)C1C(=O)OC(C)(C)C (configuration not stated)	> 100		> 100	> 100	> 100	> 100	> 100	> 100	> 100	> 100	> 100	> 100	> 100	> 100		> 100	> 100	> 100		> 100
Cc1ccc(Cc2nn(C)c(=O)n2N)cc1	> 100		> 100	> 100		> 100	> 100	> 100	> 100	> 100	> 100	> 100	> 100	> 100	> 100	> 100	> 100	> 100	> 100	
O=c1[nH]c(N/N=C\C(=N/Nc2nc3ccccc3c(=O)[nH]2)C(O)C(O)C(O)CO)nc2ccccc12 (configuration not stated)	> 100	> 100	> 100	> 100	> 100	> 100	> 100	> 100	> 100		> 100	> 100	> 100	> 100	> 100	> 100	> 100	> 100	> 100	
C[Si](C)(C)c1ccc(-c2c3ccc(-c4cc(Br)cc(Br)c4)nc3nc3nc(-c4cc(Br)cc(Br)c4)ccc23)cc1	> 100		> 100	> 100	> 100	> 100	> 100	> 100	> 100	> 100	> 100	> 100	> 100	> 100		> 100		> 100	> 100	> 100
CC(=O)O[C@H]1CC[C@H]2[C@@H]3CCC4=CC(=O)C=C[C@]4(O)[C@H]3CC[C@]12C	> 100	46.5	> 100	> 79.8	61.3	> 100	> 100	> 100	> 100	> 100	> 80.7	> 81.9	> 100	> 100	> 100	> 100	> 100	> 100		
O=c1oc2ccccc2c(O)c1C(c1cnc2ccccc2c1)c1c(O)c2ccccc2oc1=O	76.6	> 100	> 100	68	52.7	> 100		> 100	> 100	> 100	> 100	> 100	> 100	> 100		> 100	> 100	> 100		> 100
CC(=O)Nc1ccc(C(=O)NN2C(=O)CSC2c2ccc(O)cc2)cc1 (configuration not stated)	> 100	> 100	> 100	> 100	> 100		> 100	> 100	> 100	> 100	> 100	> 100	> 100	> 100	> 100	> 100	> 100	> 100	> 100	
CSc1nn(C)cc2ncnc1-2	> 100	> 100	> 100	> 100	64	> 100	> 100	> 100	> 100		> 100	> 100	> 100	> 100	> 100	> 100	> 100	> 100		
C/C(N)=C/C(=O)c1[nH]c(C(=O)O)cc1C1CCN(Cc2ccccc2)C1=O (configuration not stated)			63.8	74.6	88.4	> 100	49.6	> 100	84.3	> 100	> 100	78.5	74.9	55.6		75.2	94.1	72.5	71.3	50.2
